Results taken from US7803824B2, “Use of inhibitors of Jun N-terminal kinases to treat glaucoma” (Alcon, Inc., priority 2004, dated 2010).

System: adult rat retinal ganglion cells (RGC)
Experiment: Cultured adult rat RGC survival under cytotoxic insults (Example 4)
Assay type: cell-based
Details: 30 min pre-treatment, then 100 μM glutamate for 3 days
Procedure: Adult Sprague-Dawley rats were euthanized by CO2 asphyxiation. Their eyes were enucleated and the retinas isolated. Retinal cells were treated with of papain solution for 25 min at 37° C., then washed 3 times with 5 mL RGC culture medium (Neurobasal medium with various nutrient supplements+1% fetal calf serum). Retinal cells were dispersed by trituration. Cell suspension was placed onto poly-D-lysine- and laminin-coated 8-well chambered culture slides. The cells were then cultured in 95% air/5% CO2 at 37° C.
For glutamate-induced toxicity studies, cells were pre-treated with vehicle or the indicated compounds for 30 minutes, followed by 100 μM glutamate for 3 days.
For trophic factor withdrawal studies, three trophic factors, basic fibroblast growth factor, brain-derived neurotrophic factor, and ciliary neurotrophic factor, were removed from the culture medium. Cells were cultured in this medium with the indicated compounds for 3 days.
At the end of the incubation period, the cells were fixed and labeled for Thy-1, a RGC marker, by immunocytochemistry. Cell survival was quantified by manually counting Thy-1-positive healthy cells in each well.

SMILES: C[C@]12N[C@H](Cc3ccccc31)c1ccccc12 [MK801]
- RGC survival, glutamate-induced toxicity (Thy-1-positive healthy cells): prevented
